From US9326508B2, “(S)-3′-methyl-abscisic acid and esters thereof” (Valent BioSciences Corporation, priority 2014, dated 2016)

Tests used:
(S)-ABA 8′-hydroxylase = settings: according to Ueno, et al.; cited from earlier work
Arabidopsis thaliana = assay: Seed Germination Assay; format: in vivo; settings: for time for 100% germination: Arabidopsis seed, 0.3 ppm test compound, 0.5% DMSO
Description: To determine the germination inhibition potency of the analogs, a germination assay was performed with the model plant Arabidopsis thaliana. Arabidopsis seed was sterilized by shaking for five minutes in 200 proof ethanol, followed by shaking for five minutes in a 10% bleach solution. The seeds were then washed five times in sterile, distilled, de-ionized water and suspended in 0.1% phytoagar. The tubes containing the seeds were wrapped in aluminum foil and stratified at 4° C. for at least two days. The analogs were tested in four-well plates. Each plate contained one well each of a 0.5% DMSO control, (S)-ABA, (S)-3′-methyl-ABA (Example 2) and (±)-3′-methyl-ABA (Example 4), all at a desired concentration. In a typical experiment, 18 microliters of a 100 ppm stock solution of each compound in 10% DMSO was pipetted into the designated well. Additional DMSO (28.2 microliters) and water (3.8 microliters) was added to each well, followed by the addition of 5.95 mL of ½×Murashige and Skoog media containing 1.2% Bactoagar to all the wells. This gave a total volume of 6.0 mL per well, 0.3 ppm of the test compound and final DMSO concentration of 0.5%. When the media solidified, one hundred sterile stratified Arabidopsis seeds were distributed into each well. The plates were sealed with surgical tape and placed in a growth chamber running diurnal cycles of 12 hours of light at 24° C. and 12 hours of darkness at 19° C. The plates were scanned daily at high resolution (600 dpi) until all seeds were germinated. A seed was scored as germinated once the radicle emerged. The percentage of seeds germinated each day is reported in the graph of FIG. 1. The tests at each concentration were repeated at least twice and the results were reproducible.

rice seedling = settings: according to Ueno, et al.; cited from earlier work

| SMILES | activity in (S)-ABA 8′-hydroxylase inhibition assay relative to (S)-ABA ((S)-ABA 8′-hydroxylase) | time for 100% germination (Arabidopsis thaliana) | activity in rice seedling elongation assay relative to (S)-ABA (rice seedling) | potency at inhibiting Arabidopsis seed germination relative to (S)-ABA or (±)-3′-methyl-ABA (Arabidopsis thaliana; 0.3 ppm, FIG. 1) |
| --- | --- | --- | --- | --- |
| CC1=C(C)C(O)(/C=C/C(C)=C\C(=O)O)C(C)(C)CC1=O (racemic) [Example 4, (±)-(2Z,4E)-5-(1-hydroxy-2,3,6,6-tetramethyl-4-oxocyclohex-2-en-1-yl)-3-methylpenta-2,4-dienoic acid] | weaker activity than (S)-ABA | 8 days | equal activity to (S)-ABA |  |
| CC1=CC(=O)CC(C)(C)[C@@]1(O)/C=C/C(C)=C/C(=O)O [(S)-ABA, (S)-abscisic acid] |  | 6 days |  |  |
| CC1=C(C)[C@](O)(/C=C/C(C)=C\C(=O)O)C(C)(C)CC1=O [Example 2, (2Z,4E)-((S)-1-hydroxy-2,3,6,6-tetramethyl-4-oxocyclohex-2-en-1-yl)-3-methylpenta-2,4-dienoic acid] |  | 15 days |  | more potent |
